In paper PMC4248674 (Arthritis & rheumatology (Hoboken, N.J.), 2014):
Square brackets hold non-standard residues; d marks the D form. Peptide text beside a SMILES is read from it. Cit = NC(=O)NCCC[C@H](N)C(=O)O

Biological target: HLA-DR0401 protein (Homo sapiens, UniProt P01903+P01911, A100K/A169T/F76Y/I96L/K127E/L162R/M171V/N62H/P40V/Q125Y/R42H/S133A/S149N/S66Y/V115G/V209L/W38E)
Experiment: Peptide competition binding assay against biotinylated HA306–318 on HLA-DR0401

IC50 | Compound
1.3 µM | CC(C)C[C@H](NC(=O)[C@H](CCCNC(N)=O)NC(=O)[C@@H](NC(=O)[C@H](C)NC(=O)[C@H](CO)NC(=O)[C@H](CO)NC(=O)[C@H](CCCNC(N)=O)NC(=O)[C@@H](NC(=O)[C@H](C)NC(=O)[C@H](Cc1ccc(O)cc1)NC(=O)[C@@H](NC(=O)CN)C(C)C)[C@@H](C)O)C(C)C)C(=O)N[C@@H](CCCNC(N)=O)C(=O)N[C@@H](CO)C(=O)N[C@@H](CO)C(=O)N[C@H](C(=O)N1CCC[C@H]1C(=O)NCC(=O)N[C@H](C(=O)N[C@@H](CCCNC(=N)N)C(=O)O)C(C)C)C(C)C [Cit-Vim 1] (H-GVYAT[Cit]SSAV[Cit]L[Cit]SSVPGVR-OH)
14 µM | CC(C)C[C@H](NC(=O)[C@H](CO)NC(=O)[C@H](CC(=O)O)NC(=O)[C@H](CC(C)C)NC(=O)[C@H](CC(N)=O)NC(=O)[C@@H](NC(=O)[C@H](CCC(=O)O)NC(=O)[C@H](CCCNC(N)=O)NC(=O)[C@H](CC(C)C)NC(=O)[C@H](CC(N)=O)NC(=O)[C@H](CC(C)C)NC(=O)[C@H](CO)NC(=O)[C@@H](N)CO)[C@@H](C)O)C(=O)O [Cit-Vim 2]

More lines, now with the values behind:

Compound | IC50
C[C@H](NC(=O)[C@H](C)NC(=O)[C@H](CCCNC(N)=O)NC(=O)[C@H](C)NC(=O)[C@@H]1CCCN1C(=O)[C@H](CCCNC(N)=O)NC(=O)[C@H](C)NC(=O)[C@H](CCCNC(=N)N)NC(=O)[C@H](Cc1ccc(O)cc1)NC(=O)CN)C(=O)N[C@@H](C)C(=O)N[C@H](C(=O)O)[C@@H](C)O [Cit-Fib 1] (H-GYRA[Cit]PA[Cit]AAAT-OH) | 8.2 µM
CC[C@H](C)[C@H](NC(=O)[C@H](CCCNC(N)=O)NC(=O)[C@@H](N)CCCCN)C(=O)N[C@@H](C)C(=O)N[C@@H](CCCCN)C(=O)N[C@@H](C)C(=O)N[C@H](C(=O)N[C@@H](CC(N)=O)C(=O)N[C@@H](CCC(=O)O)C(=O)N[C@@H](CCCCN)C(=O)N[C@@H](CO)C(=O)N[C@@H](CS)C(=O)N[C@@H](CC(N)=O)C(=O)N[C@@H](CS)C(=O)N[C@@H](CC(C)C)C(=O)O)C(C)C [Cit-α-enolase 4] (H-K[Cit]IAKAVNEKSCNCL-OH) | 1.9 µM
CC[C@H](C)[C@H](NC(=O)[C@H](CCCNC(=N)N)NC(=O)[C@@H](N)CCCCN)C(=O)N[C@@H](C)C(=O)N[C@@H](CCCCN)C(=O)N[C@@H](C)C(=O)N[C@H](C(=O)N[C@@H](CC(N)=O)C(=O)N[C@@H](CCC(=O)O)C(=O)N[C@@H](CCCCN)C(=O)N[C@@H](CO)C(=O)N[C@@H](CS)C(=O)N[C@@H](CC(N)=O)C(=O)N[C@@H](CS)C(=O)N[C@@H](CC(C)C)C(=O)O)C(C)C [α-enolase 4] (H-KRIAKAVNEKSCNCL-OH) | 1.7 µM
